pIC50: −log10 of the molar value. Calls of active or inactive are those of the source. The rule behind the calls is not given here.
How the values were obtained:
[1] = biological target: T1, Tyrosinase (Agaricus bisporus, UniProt O42713)
T1 sequence (O42713 whole entry): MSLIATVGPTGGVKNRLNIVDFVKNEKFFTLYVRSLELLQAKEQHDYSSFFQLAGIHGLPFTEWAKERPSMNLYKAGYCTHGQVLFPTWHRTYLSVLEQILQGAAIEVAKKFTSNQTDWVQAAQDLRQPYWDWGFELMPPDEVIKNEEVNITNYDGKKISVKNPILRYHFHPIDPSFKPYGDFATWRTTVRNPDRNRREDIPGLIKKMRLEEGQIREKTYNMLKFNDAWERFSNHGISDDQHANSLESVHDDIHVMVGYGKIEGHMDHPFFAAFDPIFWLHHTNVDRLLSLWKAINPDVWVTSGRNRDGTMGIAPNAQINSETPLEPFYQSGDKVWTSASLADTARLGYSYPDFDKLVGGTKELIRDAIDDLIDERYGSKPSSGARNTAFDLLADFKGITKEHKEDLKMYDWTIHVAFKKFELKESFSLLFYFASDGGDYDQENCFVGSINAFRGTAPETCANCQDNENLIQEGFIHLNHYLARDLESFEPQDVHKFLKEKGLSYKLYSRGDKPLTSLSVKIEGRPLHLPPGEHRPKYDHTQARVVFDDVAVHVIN
Description: Inhibition of mushroom tyrosinase using L-DOPA as substrate preincubated for 10 mins by spectrophotometry

[2] = biological target: T2, Tyrosinase (Agaricus bisporus) (UniProt O42713); assay: Reversible inhibition of mushroom tyrosinase using L-DOPA as substrate preincubated at 0.2 to 0.6 uM for 10 mins by spectrophotometry
T2 sequence (whole entry): T1 sequence (O42713 whole entry)

[3] = biological target: T2, Tyrosinase (Agaricus bisporus); assay: Competitive inhibition of mushroom tyrosinase using L-DOPA as substrate preincubated at 0.2 to 0.6 uM for 10 mins by Lineweaver-Burk double reciprocal plot method
[4] = biological target: T2, Tyrosinase (Agaricus bisporus); assay: Reversible inhibition of mushroom tyrosinase using L-DOPA as substrate preincubated at 0.1 to 0.3 uM for 10 mins by spectrophotometry
[5] = biological target: T2, Tyrosinase (Agaricus bisporus); assay: Competitive inhibition of mushroom tyrosinase using L-DOPA as substrate preincubated at 0.1 to 0.3 uM for 10 mins by Lineweaver-Burk double reciprocal plot method

CCCCOc1ccc(CC/C(C)=N/NC(N)=S)cc1
pIC50 [1]: 6.57

CCCOc1ccc(CC/C(C)=N/NC(N)=S)cc1
pIC50 [1]: 6.58

CCCCOc1ccc(C/C(C)=N/NC(=S)NN)cc1
pIC50 [1]: 3.65

COc1ccc(C/C(C)=N/NC(=S)NN)cc1
pIC50 [1]: 3.80

C/C(Cc1ccc(O)cc1)=N\NC(N)=S
pIC50 [1]: 5.57

CCOC(=O)COc1ccc(CC/C(C)=N/NC(N)=S)cc1
pIC50 [1]: 6.29

CCCCOc1ccc(CC/C(C)=N/NC(=S)NN)cc1
pIC50 [1]: 3.64

C/C(CCc1ccc(OC(=O)c2ccccc2)cc1)=N\NC(N)=S
pIC50 [1]: 6.81

C/C(CCc1ccc(O)cc1)=N\NC(=S)NN
pIC50 [1]: 3.90

CC(=O)Oc1ccc(CC/C(C)=N/NC(N)=S)cc1
pIC50 [1]: 7.14

CCOc1ccc(CC/C(C)=N/NC(N)=S)cc1
pIC50 [1]: 6.68

CCOC(=O)CCCOc1ccc(C/C(C)=N/NC(N)=S)cc1
pIC50 [1]: 6.32

C/C(Cc1ccc(OCc2ccccc2)cc1)=N\NC(N)=S
pIC50 [1]: 6.47 | inhibition [2]: Active | inhibition [3]: Active

C/C(CCc1ccc(OC(=O)C(C)C)cc1)=N\NC(N)=S
pIC50 [1]: 6.54

CCCCCOc1ccc(C/C(C)=N/NC(N)=S)cc1
pIC50 [1]: 6.21

C/C(CCc1ccc(OCc2ccccc2)cc1)=N\NC(N)=S
pIC50 [1]: 6.66 | inhibition [4]: Active | inhibition [5]: Active

COc1ccc(CC/C(C)=N/NC(=S)NN)cc1
pIC50 [1]: 3.68

CCCCCCOc1ccc(CC/C(C)=N/NC(N)=S)cc1
pIC50 [1]: 6.12

CCOC(=O)CCCOc1ccc(CC/C(C)=N/NC(N)=S)cc1
pIC50 [1]: 6.48

COc1ccc(CC/C(C)=N/NC(N)=S)cc1
pIC50 [1]: 6.73

C/C(CCc1ccc(OCCC(C)C)cc1)=N\NC(N)=S
pIC50 [1]: 6.32

C/C(CCc1ccc(OCCCC(=O)O)cc1)=N\NC(N)=S
pIC50 [1]: 6.17

C/C(CCc1ccc(OCCCc2ccccc2)cc1)=N\NC(N)=S
pIC50 [1]: 6.08

C/C(CCc1ccc(OCc2ccc(Br)cc2)cc1)=N\NC(N)=S
pIC50 [1]: 6.36

CCC(CC)Oc1ccc(CC/C(C)=N/NC(N)=S)cc1
pIC50 [1]: 6.35

COc1ccc(/C(C)=N/NC(=S)NN)cc1
pIC50 [1]: 3.96

C/C(CCc1ccc(OCC(=O)O)cc1)=N\NC(N)=S
pIC50 [1]: 6.23

CCCCCOc1ccc(CC/C(C)=N/NC(N)=S)cc1
pIC50 [1]: 6.39

CCCCCCCCOc1ccc(CC/C(C)=N/NC(N)=S)cc1
pIC50 [1]: 6.06

NNC(=S)NN
pIC50 [1]: 3.75

— ChEMBL document CHEMBL3399985, “Rational design, synthesis and structure-activity relationships of 4-alkoxy- and 4-acyloxy-phenylethylenethiosemicarbazone analogues as novel tyrosinase inhibitors” (Bioorg Med Chem, 2015)
